# Results published in US10532084B2, “Chondrocyte extracellular matrix-derived peptide” (EYEBIO KOREA, priority 2016, dated 2020).
# Entries after “also recorded” stand apart in the source; their conditions may differ.
# How the values were obtained:
# [1] = system: human vascular endothelial cells (HUVEC); test: Tubing assay (VEGF-induced tube formation); type: cell-based; settings: 4 hours
# Procedure: The antiangiogenic effect of hydroxy proline-GQDGLAGPK was confirmed by tubing assay using human vascular endothelial cells (HUVEC).
# HUVEC cells were stained with calcein-AM and then dispensed on a Matrigel-coated 48-well plate, treated with collagen, CPI and CPII at concentrations together with 50 ng/ml of recombinant human VEGF, and after 4 hours of incubation at 37° C., tube formation was observed by fluorescence microscopy (Leica) and tube length was analyzed by Image lab software (Bio-Rad Laboratories).
# Tubing assay using human vascular endothelial cells (HUVEC) was performed to confirm the anti-angiogenic effect of hydroxyl proline-GQDGLAGPK.
# [2] = system: corneal epithelial cell; test: Corneal epithelial cell detachment (H&E), dry eye model; type: in vivo, NOD.B10.H2b mice
# Procedure: (§1) NOD.B10.H2^b mice were purchased from Jackson Laboratory (Bar Harbor, Me., USA). Animal experiments were carried out in accordance with the guidelines approved by the University of Inje (No.; 2014-029) and ARVO regarding animal use for eye and vision research. NOD.B10.H2^b mice at 12-16 weeks old were exposed to 40-50% ambient humidity and ventilation using a fan for 18 hours a day as dry stress and subcutaneously injected with 0.5 mg/0.2 mL muscarinic receptor blocker. In addition, scopolamine hydrobromide (Sigma-Aldrich, St. Louis, Mo.) was injected alternately to the […] hips four times a day for 10 days at 9 am, […].
# (§2) After 10 days of ocular dry stress, the scopolamine injection was stopped, and switched to a normal humidity and temperature environment and the dry stress was removed, 10 mg/ml Hyp-[…] and collagen were dissolved in normal saline to administer 5 μL each 5 times a day for 10 days, and normal saline and 0.1% HA were administered to the eyeball 5 times a day for 10 days. Three mice were used in each of the six experimental groups using both eyes of the mice and all experiments were repeated.
# [3] = Tear amount by phenol red-impregnated cotton threads, dry eye model; type: in vivo, NOD.B10.H2b mice
# Procedure: Tear production was measured by a method reported using phenol red-impregnated cotton threads (Zone-Quick, Oasis, Glendora, Calif.) (Villareal A L, Farley W, Pflugfelder S C. Effect of topical ophthalmic epinastine and olopatadine on tear volume in mice. Eye Contact Lens. 2006; 32 (6): 272-276.). […] The measured lachrymal fluid in the millimeter was compared with a standard curve expressed as a cotton thread which was soaked with the expected tear amount of mouse of basic solution ([…] of 0.9% salt and 5 mL of 5 N NaOH) for 20 seconds.
# The degree of tear generation was measured by phenol red-impregnated cotton threads.
# [4] = system: VEGF, ICAM and MCP-1; test: Quantitative real-time RT-PCR of retina and choroid, laser CNV model; type: in vivo, C57BL/6 mice; settings: mouse, 14 days after laser, 5 μg
# Procedure: In order to confirm the inhibitory effect of hydroxy proline-GQDGLAGPK on neovascularization-related gene expression, RNA was extracted using RNeasy Mini kit (Qiagen) in mixture of retina and choroid of extracted mice eyeballs, and cDNA was synthesized by using oligo(dT) primer and reverse transcriptase. PCR products were amplified using the specific primer set (COSMOGENETECH, Korea) shown in Table 1 and SYBR Green PCR 2X PreMix (Enzynomics) and for the PCR conditions, the samples were incubated at 95° C. for 10 minutes, and 40 PCR cycles at 95° C. for 15 seconds, 60° C. for 30 seconds and 72° C. for 15 seconds, were performed. Relative quantification was calculated using 2-(DDCT) method [Livak and Schmittgen, 2001; DDCT=(CT, target-CT, actin) control group (CT, target-CT, actin) control group].
# After 14 days of laser irradiation in mouse, RNA was extracted from retina and choroid to analyze the gene expression by real-time RT-PCR.
# [5] = system: conjunctival goblet cells; test: Distribution of conjunctival goblet cells (PAS staining), dry eye model; type: in vivo, NOD.B10.H2b mice
# Procedure: as §1, §2
# The distribution of conjunctival goblet cells according to eye drop in dry eye mice was observed.
# [6] = system: VEGF, VEGFR-1 (Flt-1), VEGR-2 (Flk-1) and Angiopoietin 2; settings: mouse, 14 days after laser, 5 μg
# Procedure: C57BL/6 mice were purchased from Orient Bio and the animal experiments was carried out in accordance with the guidelines approved by the University of Inje (No, 2013-053) and ARVO regarding animal use for eye and vision studies. 6-week-old C57BL/6 mice were treated with diode green laser (532 nm, 150 mW, 0.1 sec, […], photocoagulator) to damage the retinal optic nerve area. Immediately after laser irradiation, CP1, CPII and positive control group Avastin were dissolved in PBS and administered […] each per a day in the eyeball for 5 days. The above experiment for each experiment group was performed using both eyes of five mice each.
# [7] = system: corneal surface; test: Corneal surface irregularity (smoothness) score, dry eye model; type: in vivo, NOD.B10.H2b mice
# Procedure: as §1, §2
# As for the curvature of the corneal surface, a reflected image of the white ring was obtained from an optical fiber ring illumination of a stereoscopic microscope (SZX7; Olympus) after anesthetizing the animal. Corneal smoothness was assessed by grading the irregularity of corneal epithelial cells reflected in the white ring of the digital image. Corneal irregularity severity score was calculated by dividing the reflection ring into quadrants and grading into 5 grades according to degree of irregularity. No irregularity is grade 0, irregularity of ¼ (quarter) is grade 1; irregularity of 2/4 (two-quarters) is grade 2; irregularity of ¾ (three-quarters) is grade 3; entire irregularity is grade 4; and […] and thus all the rings were confirmed.
# The degree of corneal curvature in each experiment group was quantified to confirm the bendability of the corneal surface.
substance,measurement,setting,value
hydroxy proline-GQDGLAGPK [Hyp-GQDGLAGPK],concentration dependence of tube formation inhibition,[1]; 50 ng/ml VEGF,concentration-dependent manner
same,tube formation compared with the VEGF-untreated group,[1]; 50 ng/ml VEGF,decreased to almost same extent of angiogenesis of the VEGF-untreated group
same,inhibition of tube formation (angiogenesis),"[1]; 50 ng/ml recombinant human VEGF, listed as CPII",significant inhibition of angiogenesis; also recorded: best anti-angiogenic efficacy; also recorded: best anti-angiogenic ability
same,reduction of corneal epithelial cell detachment vs CsA group,[2]; 10 days of treatment,75%
same,reduction of corneal epithelial cell detachment vs DQS group,[2]; 10 days of treatment,60%
same,reduction of corneal epithelial cell detachment vs HA group,[2]; 10 days of treatment,77.8%
same,reduction of corneal epithelial cell detachment vs collagen group,[2]; 10 days of treatment,55.6%
same,reduction of corneal epithelial cell detachment vs dry stress (DS 10D),[2]; 10 days of treatment,83.3%
same,reduction of corneal epithelial cell detachment vs normal saline group,[2]; 10 days of treatment,71.4%
same,corneal epithelial cell detachment,"[2]; 10 days of treatment after removal of dry stress, DS 10D 2.29±0.57",0.38±0.17 /0.1 mm^2
same,tear amount increase vs DS 10D group,[3]; 10 days after treatment,7.9 times
same,tear amount relative to CsA treatment group,[3]; 10 days after treatment,1.7 times
same,tear amount relative to DQS treatment group,[3]; 10 days after treatment,1.4 times
same,tear amount relative to HA treatment group,[3]; 10 days after treatment,1.6 times
same,tear amount relative to collagen positive control group,[3]; 10 days after treatment,about 1.7 times
same,tear amount relative to normal saline negative control group,[3]; 10 days after treatment,about 2.8 times
same,tear amount,"[3]; 10 days of treatment after removal of dry stress, normal 0.22±0.01, DS 10D 0.03±0.01",0.23 ± 0.02 µL
same,MCP-1 gene expression in retina and choroid,[4]; laser-treated group increased about 10 times,significantly decreased
same,VEGF gene expression in retina and choroid,[4]; laser-treated group increased about 55 times,decreased to the level similar to that of the laser-untreated group
same,ICAM gene expression in retina and choroid,[4]; laser-treated group increased about 300 times,significantly decreased
same,goblet cell recovery vs dry stress (DS 10D),[5]; 10 days of treatment,2.3 times
same,goblet cells relative to CsA group,[5]; 10 days of treatment,1.2 times
same,goblet cells relative to DQS group,[5]; 10 days of treatment,1.5 times
same,goblet cells relative to HA group,[5]; 10 days of treatment,1.6 times
same,goblet cells relative to collagen group,[5]; 10 days of treatment,1.3 times
same,goblet cells relative to normal saline group,[5]; 10 days of treatment,2.6 times
same,distribution of goblet cells in the conjunctiva (in words),[5]; 10 days of treatment after removal of dry stress,significantly increased
same,conjunctival goblet cells,"[5]; 10 days of treatment after removal of dry stress, normal 14.38±0.44, DS 10D 6.02±0.29",13.9±0.83 /0.1 mm^2
same,"protein expression of VEGF, VEGFR-1, -2 and Angiopoietin 2 compared with Avastin",[6],almost similar to that of Avastin
same,"protein expression of VEGF, VEGFR-1, VEGFR-2 and Angiopoietin 2 in retina and choroid",[6]; immunoblotting,markedly decreased
same,decrease of corneal surface curvature score vs CsA group,[7]; day 10,40%
same,decrease of corneal surface curvature score vs DQS group,[7]; day 10,33.3%
same,decrease of corneal surface curvature score vs HA group,[7]; day 10,33.3%
same,decrease of corneal surface curvature score vs collagen group,[7]; day 10,45.5%
same,decrease of corneal surface curvature score vs normal saline group,[7]; day 10,40%
same,decrease of corneal surface curvature score vs dry stress (DS 10D),[7]; day 10 after removal of dry stress,53.8%
same,degree of curvature (irregularity score) of the corneal surface,"[7]; day 10 after removal of dry stress, grades 0-5, normal 0.33±0.58, DS 10D 4.33±0.58",2.0±0 points
